Reference: ChEMBL document CHEMBL1152321, “Recent advances in the chemistry and biology of new generation taxoids” (J Nat Prod, 2009)

Key:
NCI-H460 = assay: Cytotoxicity against human H460 cells after 72 hrs; type: functional, cell-based; settings: NCI-H460, 72 h
MCF7 [1] = assay: Cytotoxicity against P-glycoprotein deficient wild type human MCF7 cells after 72 hrs; type: functional, cell-based; settings: MCF7, 72 h
HT-29 = assay: Cytotoxicity against human HT-29 cells after 72 hrs; type: functional, cell-based; settings: HT-29, 72 h
[2] = Cytotoxicity against P-glycoprotein deficient wild type human LCC-6 cells after 72 hrs; type: functional, cell-based; settings: LCC-6, 72 h
MCF7 [3] = assay: Resistance factor, ratio of IC50 for human MCF7 cells expressing P-glycoprotein to IC50 for P-glycoprotein deficient wild type human MCF7 cells; type: functional
[4] = Resistance factor, ratio of IC50 for human LCC-6 cells expressing P-glycoprotein to IC50 for P-glycoprotein deficient wild type human LCC-6 cells; type: functional; parameters: reference not given here
[5] = Cytotoxicity against human LCC-6 cells expressing P-glycoprotein after 72 hrs; type: functional, cell-based; settings: LCC-6, 72 h
MCF7 [6] = assay: Cytotoxicity against human MCF7 cells expressing P-glycoprotein after 72 hrs; type: functional, cell-based; settings: MCF7, 72 h

Structure (SMILES)	IC50 (NCI-H460) [pM]	IC50 (MCF7 [1]) [pM]	IC50 (HT-29) [pM]	IC50 [2] [pM]	Ratio (MCF7 [3])	Ratio [4]	IC50 [5] [pM]	IC50 (MCF7 [6]) [pM]
CC(=O)O[C@@]12CO[C@@H]1C[C@H](O)[C@@]1(C)C(=O)[C@H](OC(=O)N(C)C)C3=C(C)[C@@H](OC(=O)[C@H](O)[C@@H](NC(=O)OC(C)(C)C)C(F)(F)F)C[C@@](O)([C@@H](OC(=O)c4cccc(Cl)c4)[C@H]21)C3(C)C	420	120	450	270	8.5	9.4	2550	1020
CC(=O)O[C@@]12CO[C@@H]1C[C@H](O)[C@@]1(C)C(=O)[C@H](OC(=O)N(C)C)C3=C(C)[C@@H](OC(=O)[C@H](O)[C@@H](NC(=O)OC(C)(C)C)C(F)F)C[C@@](O)([C@@H](OC(=O)c4cccc(N=[N+]=[N-])c4)[C@H]21)C3(C)C	520	370	400	290	3.9	5.8	1690	1440
COc1cccc(C(=O)O[C@H]2[C@@H]3[C@]4(OC(C)=O)CO[C@@H]4C[C@H](O)[C@@]3(C)C(=O)[C@H](OC(C)=O)C3=C(C)[C@@H](OC(=O)[C@H](O)[C@@H](NC(=O)OC(C)(C)C)C(F)F)C[C@]2(O)C3(C)C)c1	380	340	520	260	12	21	5570	4160
CC(=O)O[C@H]1C(=O)[C@@]2(C)[C@H]([C@H](OC(=O)c3cccc(F)c3)[C@]3(O)C[C@H](OC(=O)[C@H](O)[C@@H](NC(=O)OC(C)(C)C)C(F)(F)F)C(C)=C1C3(C)C)[C@]1(OC(C)=O)CO[C@@H]1C[C@@H]2O	490	450	1110	380	13	16	5930	5580
COC(=O)O[C@H]1C(=O)[C@@]2(C)[C@H]([C@H](OC(=O)c3cccc(Cl)c3)[C@]3(O)C[C@H](OC(=O)[C@H](O)[C@@H](NC(=O)OC(C)(C)C)C(F)F)C(C)=C1C3(C)C)[C@]1(OC(C)=O)CO[C@@H]1C[C@@H]2O	250	260	290	130	8	14	1820	2080
COC(=O)O[C@H]1C(=O)[C@@]2(C)[C@H]([C@H](OC(=O)c3cccc(OC)c3)[C@]3(O)C[C@H](OC(=O)[C@H](O)[C@@H](NC(=O)OC(C)(C)C)C(F)(F)F)C(C)=C1C3(C)C)[C@]1(OC(C)=O)CO[C@@H]1C[C@@H]2O	380	170	530	270	17	15	3990	2880
CC(=O)O[C@H]1C(=O)[C@@]2(C)[C@H]([C@H](OC(=O)c3cccc(F)c3)[C@]3(O)C[C@H](OC(=O)[C@H](O)[C@@H](NC(=O)OC(C)(C)C)C(F)F)C(C)=C1C3(C)C)[C@]1(OC(C)=O)CO[C@@H]1C[C@@H]2O	200	440	350	520	13	19	10000	5330
COC(=O)O[C@H]1C(=O)[C@@]2(C)[C@H]([C@H](OC(=O)c3cccc(N=[N+]=[N-])c3)[C@]3(O)C[C@H](OC(=O)[C@H](O)[C@@H](NC(=O)OC(C)(C)C)C(F)(F)F)C(C)=C1C3(C)C)[C@]1(OC(C)=O)CO[C@@H]1C[C@@H]2O	200	470	400	1090	6.2	3.7	4000	2920
COC(=O)O[C@H]1C(=O)[C@@]2(C)[C@H]([C@H](OC(=O)c3cccc(OC)c3)[C@]3(O)C[C@H](OC(=O)[C@H](O)[C@@H](NC(=O)OC(C)(C)C)C(F)F)C(C)=C1C3(C)C)[C@]1(OC(C)=O)CO[C@@H]1C[C@@H]2O	300	810	440	1030	8.1	9.9	10200	6590
CCC(=O)O[C@H]1C(=O)[C@@]2(C)[C@H]([C@H](OC(=O)c3cccc(OC)c3)[C@]3(O)C[C@H](OC(=O)[C@H](O)[C@@H](NC(=O)OC(C)(C)C)C(F)(F)F)C(C)=C1C3(C)C)[C@]1(OC(C)=O)CO[C@@H]1C[C@@H]2O	410	190	540	450	11	9	4240	2160
CCC(=O)O[C@H]1C(=O)[C@@]2(C)[C@H]([C@H](OC(=O)c3cccc(F)c3)[C@]3(O)C[C@H](OC(=O)[C@H](O)[C@@H](NC(=O)OC(C)(C)C)C(F)F)C(C)=C1C3(C)C)[C@]1(OC(C)=O)CO[C@@H]1C[C@@H]2O	410	530	860	880	14	3.5	4630	7240
CC(=O)O[C@@]12CO[C@@H]1C[C@H](O)[C@@]1(C)C(=O)[C@H](OC(=O)N(C)C)C3=C(C)[C@@H](OC(=O)[C@H](O)[C@@H](NC(=O)OC(C)(C)C)C(F)F)C[C@@](O)([C@@H](OC(=O)c4cccc(Cl)c4)[C@H]21)C3(C)C	360	310	580	210	9.5	18	3870	2960
CC(=O)O[C@H]1C(=O)[C@@]2(C)[C@H]([C@H](OC(=O)c3cccc(Cl)c3)[C@]3(O)C[C@H](OC(=O)[C@H](O)[C@@H](NC(=O)OC(C)(C)C)C(F)(F)F)C(C)=C1C3(C)C)[C@]1(OC(C)=O)CO[C@@H]1C[C@@H]2O	500	400	850	220	13	23	4960	5040
CC(=O)O[C@H]1C(=O)[C@@]2(C)[C@H]([C@H](OC(=O)c3cccc(Cl)c3)[C@]3(O)C[C@H](OC(=O)[C@H](O)[C@@H](NC(=O)OC(C)(C)C)C(F)F)C(C)=C1C3(C)C)[C@]1(OC(C)=O)CO[C@@H]1C[C@@H]2O	490	400	1940	310	16	19	5800	6480
COC(=O)O[C@H]1C(=O)[C@@]2(C)[C@H]([C@H](OC(=O)c3cccc(F)c3)[C@]3(O)C[C@H](OC(=O)[C@H](O)[C@@H](NC(=O)OC(C)(C)C)C(F)F)C(C)=C1C3(C)C)[C@]1(OC(C)=O)CO[C@@H]1C[C@@H]2O	300	590	430	860	19	15	12600	11400
CC(=O)O[C@@]12CO[C@@H]1C[C@H](O)[C@@]1(C)C(=O)[C@H](OC(=O)N(C)C)C3=C(C)[C@@H](OC(=O)[C@H](O)[C@@H](NC(=O)OC(C)(C)C)C(F)F)C[C@@](O)([C@@H](OC(=O)c4cccc(F)c4)[C@H]21)C3(C)C	200	520	350	690	16	15	10600	8130
CCC(=O)O[C@H]1C(=O)[C@@]2(C)[C@H]([C@H](OC(=O)c3cccc(F)c3)[C@]3(O)C[C@H](OC(=O)[C@H](O)[C@@H](NC(=O)OC(C)(C)C)C(F)(F)F)C(C)=C1C3(C)C)[C@]1(OC(C)=O)CO[C@@H]1C[C@@H]2O	590	680	1150	820	5.6	5.2	4270	3780
CCC(=O)O[C@H]1C(=O)[C@@]2(C)[C@H]([C@H](OC(=O)c3cccc(N=[N+]=[N-])c3)[C@]3(O)C[C@H](OC(=O)[C@H](O)[C@@H](NC(=O)OC(C)(C)C)C(F)F)C(C)=C1C3(C)C)[C@]1(OC(C)=O)CO[C@@H]1C[C@@H]2O	270	320	370	390	3	2.9	1150	960
CCC(=O)O[C@H]1C(=O)[C@@]2(C)[C@H]([C@H](OC(=O)c3cccc(OC)c3)[C@]3(O)C[C@H](OC(=O)[C@H](O)[C@@H](NC(=O)OC(C)(C)C)C(F)F)C(C)=C1C3(C)C)[C@]1(OC(C)=O)CO[C@@H]1C[C@@H]2O	400	1140	590	690	–	–	–	4050
COc1cccc(C(=O)O[C@H]2[C@@H]3[C@]4(OC(C)=O)CO[C@@H]4C[C@H](O)[C@@]3(C)C(=O)[C@H](OC(=O)N(C)C)C3=C(C)[C@@H](OC(=O)[C@H](O)[C@@H](NC(=O)OC(C)(C)C)C(F)(F)F)C[C@]2(O)C3(C)C)c1	350	570	680	280	3.2	16	4480	1840
CCC(=O)O[C@H]1C(=O)[C@@]2(C)[C@H]([C@H](OC(=O)c3cccc(Cl)c3)[C@]3(O)C[C@H](OC(=O)[C@H](O)[C@@H](NC(=O)OC(C)(C)C)C(F)F)C(C)=C1C3(C)C)[C@]1(OC(C)=O)CO[C@@H]1C[C@@H]2O	300	440	430	520	12	9.1	4710	5200
